# Results as given in article PMC5563081, “Modulating Protein-Protein Interactions of the Mitotic Polo-like Kinases to Target Mutant KRAS” (Cell Chemical Biology, 2017).
# Read-outs that look alike come from different tables or passages of the source.
# Assays:
# [1] = Stability in mouse hepatocytes; format: in vitro ADME
# ERN1 = molecular target: T1, ERN1 (Homo sapiens, UniProt O75460); assay: DiscoverX KINOMEscan; format: binding; details: read-out: % Control
# T1 construct: purchased DiscoverX KINOMEscan
# Method: (§1) A panel of 55 proteins (comprising 51 human kinases structurally or functionally related to the PLKs, plus the kinase catalytic domains of PLK1, PLK2, PLK3 and PLK4) were selected for testing by DiscoverX using the KINOMEscan assay platform. Compounds were supplied as 40x DMSO stocks and were tested at a final concentration of 50μM for Poloppin and 5μM for Poloppin-II. Binding interactions were reported as percentage of control where lower numbers indicate stronger binding. A cut-off of <35% was applied to report significant binding.
# NEK10 = molecular target: T2, NEK10 (Homo sapiens, UniProt Q6ZWH5); assay: DiscoverX KINOMEscan; format: binding; details: read-out: % Control
# T2 construct: purchased DiscoverX KINOMEscan
# Method: as §1
# WEE1 = molecular target: T3, WEE1 (Homo sapiens, UniProt P30291); assay: DiscoverX KINOMEscan; format: binding; details: read-out: % Control
# T3 construct: purchased DiscoverX KINOMEscan
# T3 sequence (P30291 whole entry): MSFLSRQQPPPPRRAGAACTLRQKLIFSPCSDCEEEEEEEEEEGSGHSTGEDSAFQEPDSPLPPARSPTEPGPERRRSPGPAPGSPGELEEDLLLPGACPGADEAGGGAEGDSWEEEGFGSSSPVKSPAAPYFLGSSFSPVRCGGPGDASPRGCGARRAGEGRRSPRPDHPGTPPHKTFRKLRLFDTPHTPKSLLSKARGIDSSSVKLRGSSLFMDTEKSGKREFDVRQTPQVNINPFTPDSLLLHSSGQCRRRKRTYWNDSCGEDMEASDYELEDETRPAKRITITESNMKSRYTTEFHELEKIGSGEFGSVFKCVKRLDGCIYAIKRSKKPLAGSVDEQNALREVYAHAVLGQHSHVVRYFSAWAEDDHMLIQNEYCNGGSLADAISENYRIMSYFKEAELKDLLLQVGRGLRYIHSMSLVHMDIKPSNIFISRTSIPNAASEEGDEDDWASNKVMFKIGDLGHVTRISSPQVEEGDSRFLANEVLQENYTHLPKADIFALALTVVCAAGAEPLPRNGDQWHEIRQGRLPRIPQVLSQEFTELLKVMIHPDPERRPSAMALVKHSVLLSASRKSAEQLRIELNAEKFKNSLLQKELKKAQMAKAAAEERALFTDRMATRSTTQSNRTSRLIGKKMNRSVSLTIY
# Method: as §1
# NEK2 = molecular target: T4, NEK2 (Homo sapiens, UniProt P51955); assay: DiscoverX KINOMEscan; format: binding; details: read-out: % Control
# T4 construct: purchased DiscoverX KINOMEscan
# T4 sequence (P51955 whole entry): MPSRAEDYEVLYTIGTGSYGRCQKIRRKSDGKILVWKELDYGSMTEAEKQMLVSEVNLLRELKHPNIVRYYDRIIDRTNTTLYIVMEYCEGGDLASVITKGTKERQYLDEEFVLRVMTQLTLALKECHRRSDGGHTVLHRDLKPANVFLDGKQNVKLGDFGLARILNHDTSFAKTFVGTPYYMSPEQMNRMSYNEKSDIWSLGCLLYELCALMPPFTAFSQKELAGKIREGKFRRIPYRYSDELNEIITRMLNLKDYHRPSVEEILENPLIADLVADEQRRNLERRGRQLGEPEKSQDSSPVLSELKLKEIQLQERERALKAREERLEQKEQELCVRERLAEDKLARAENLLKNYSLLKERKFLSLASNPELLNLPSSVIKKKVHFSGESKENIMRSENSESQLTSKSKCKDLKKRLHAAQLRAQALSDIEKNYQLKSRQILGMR
# Method: as §1
# NEK5 = molecular target: T5, NEK5 (Homo sapiens, UniProt Q6P3R8); assay: DiscoverX KINOMEscan; format: binding; details: read-out: % Control
# T5 construct: purchased DiscoverX KINOMEscan
# T5 sequence (Q6P3R8 whole entry): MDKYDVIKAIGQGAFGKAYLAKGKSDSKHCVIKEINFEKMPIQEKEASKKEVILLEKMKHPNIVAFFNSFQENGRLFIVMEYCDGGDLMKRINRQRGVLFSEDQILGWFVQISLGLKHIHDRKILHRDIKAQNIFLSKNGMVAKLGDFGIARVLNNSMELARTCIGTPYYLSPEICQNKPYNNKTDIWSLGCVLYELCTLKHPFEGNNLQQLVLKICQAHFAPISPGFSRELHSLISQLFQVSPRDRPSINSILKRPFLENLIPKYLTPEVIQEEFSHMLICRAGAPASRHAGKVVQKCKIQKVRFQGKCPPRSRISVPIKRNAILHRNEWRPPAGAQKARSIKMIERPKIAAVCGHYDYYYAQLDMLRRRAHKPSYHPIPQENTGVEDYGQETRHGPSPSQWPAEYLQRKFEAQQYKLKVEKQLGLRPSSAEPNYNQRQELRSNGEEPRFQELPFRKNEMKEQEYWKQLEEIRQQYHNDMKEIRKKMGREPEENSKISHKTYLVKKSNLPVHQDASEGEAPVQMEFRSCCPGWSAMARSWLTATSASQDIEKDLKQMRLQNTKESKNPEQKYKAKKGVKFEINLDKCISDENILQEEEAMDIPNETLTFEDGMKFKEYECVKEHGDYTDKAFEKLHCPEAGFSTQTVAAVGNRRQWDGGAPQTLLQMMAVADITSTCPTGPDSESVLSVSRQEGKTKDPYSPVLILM
# Method: as §1
# TLK2 = molecular target: T6, TLK2 (Homo sapiens, UniProt Q86UE8); assay: DiscoverX KINOMEscan; format: binding; details: read-out: % Control
# T6 construct: purchased DiscoverX KINOMEscan
# T6 sequence (Q86UE8 whole entry): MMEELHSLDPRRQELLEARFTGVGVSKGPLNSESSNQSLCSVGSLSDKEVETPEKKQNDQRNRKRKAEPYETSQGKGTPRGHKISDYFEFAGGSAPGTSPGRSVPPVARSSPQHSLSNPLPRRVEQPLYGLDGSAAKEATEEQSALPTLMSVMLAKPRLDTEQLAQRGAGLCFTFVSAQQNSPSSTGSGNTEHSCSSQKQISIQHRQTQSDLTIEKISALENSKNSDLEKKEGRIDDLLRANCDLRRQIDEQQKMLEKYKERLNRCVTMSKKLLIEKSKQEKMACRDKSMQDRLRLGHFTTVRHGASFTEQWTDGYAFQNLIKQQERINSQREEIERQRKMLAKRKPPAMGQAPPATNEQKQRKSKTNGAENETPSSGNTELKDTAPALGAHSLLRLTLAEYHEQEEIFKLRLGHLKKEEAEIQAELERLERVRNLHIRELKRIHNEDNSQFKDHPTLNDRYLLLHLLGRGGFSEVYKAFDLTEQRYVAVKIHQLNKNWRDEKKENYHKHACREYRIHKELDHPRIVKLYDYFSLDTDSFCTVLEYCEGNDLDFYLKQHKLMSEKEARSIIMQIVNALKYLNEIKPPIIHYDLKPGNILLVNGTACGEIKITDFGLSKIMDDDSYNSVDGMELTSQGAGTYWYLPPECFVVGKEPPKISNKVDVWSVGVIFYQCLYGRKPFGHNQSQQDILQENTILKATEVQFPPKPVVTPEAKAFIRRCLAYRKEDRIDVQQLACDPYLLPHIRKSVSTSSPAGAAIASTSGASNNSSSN
# Method: as §1
# IKBKB = molecular target: T7, IKBKB (Homo sapiens, UniProt O14920); assay: DiscoverX KINOMEscan; format: binding; details: read-out: % Control
# T7 construct: purchased DiscoverX KINOMEscan
# Method: as §1
# EIF2AK4 = molecular target: T8, EIF2AK4 (Homo sapiens, UniProt Q9P2K8, S808G); assay: DiscoverX KINOMEscan; format: binding; details: read-out: % Control
# T8 construct: purchased DiscoverX KINOMEscan
# T8 sequence (Q9P2K8 590-1001 S808G limits assumed): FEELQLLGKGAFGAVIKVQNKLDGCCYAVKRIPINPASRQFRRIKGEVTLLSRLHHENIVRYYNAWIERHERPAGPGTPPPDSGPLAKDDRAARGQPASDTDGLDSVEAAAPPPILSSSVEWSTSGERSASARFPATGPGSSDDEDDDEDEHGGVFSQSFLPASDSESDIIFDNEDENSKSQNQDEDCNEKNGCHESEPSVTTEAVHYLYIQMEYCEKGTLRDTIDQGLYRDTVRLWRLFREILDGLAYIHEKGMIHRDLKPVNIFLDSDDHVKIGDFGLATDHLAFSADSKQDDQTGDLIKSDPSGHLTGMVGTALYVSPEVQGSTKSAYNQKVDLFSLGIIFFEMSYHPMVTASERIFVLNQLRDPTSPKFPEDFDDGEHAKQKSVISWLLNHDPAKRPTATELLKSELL
# Method: as §1
# NEK3 = molecular target: T9, NEK3 (Homo sapiens, UniProt P51956); assay: DiscoverX KINOMEscan; format: binding; details: read-out: % Control
# T9 construct: purchased DiscoverX KINOMEscan
# T9 sequence (P51956 whole entry): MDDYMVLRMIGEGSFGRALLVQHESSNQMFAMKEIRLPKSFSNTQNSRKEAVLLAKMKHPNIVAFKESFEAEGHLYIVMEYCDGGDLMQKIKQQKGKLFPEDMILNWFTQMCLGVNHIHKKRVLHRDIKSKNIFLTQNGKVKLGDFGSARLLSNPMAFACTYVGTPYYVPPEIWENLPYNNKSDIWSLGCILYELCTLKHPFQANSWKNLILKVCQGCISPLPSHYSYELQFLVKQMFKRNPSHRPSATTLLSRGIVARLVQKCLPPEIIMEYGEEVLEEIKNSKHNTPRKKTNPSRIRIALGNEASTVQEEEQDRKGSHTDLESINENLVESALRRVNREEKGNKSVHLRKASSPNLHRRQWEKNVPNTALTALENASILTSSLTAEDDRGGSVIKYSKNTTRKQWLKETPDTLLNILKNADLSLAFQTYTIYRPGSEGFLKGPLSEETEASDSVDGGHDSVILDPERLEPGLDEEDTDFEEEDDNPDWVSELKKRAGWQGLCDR
# Method: as §1
# ULK1 = molecular target: T10, ULK1 (Homo sapiens, UniProt O75385); assay: DiscoverX KINOMEscan; format: binding; details: read-out: % Control
# T10 construct: purchased DiscoverX KINOMEscan
# T10 sequence (O75385 whole entry): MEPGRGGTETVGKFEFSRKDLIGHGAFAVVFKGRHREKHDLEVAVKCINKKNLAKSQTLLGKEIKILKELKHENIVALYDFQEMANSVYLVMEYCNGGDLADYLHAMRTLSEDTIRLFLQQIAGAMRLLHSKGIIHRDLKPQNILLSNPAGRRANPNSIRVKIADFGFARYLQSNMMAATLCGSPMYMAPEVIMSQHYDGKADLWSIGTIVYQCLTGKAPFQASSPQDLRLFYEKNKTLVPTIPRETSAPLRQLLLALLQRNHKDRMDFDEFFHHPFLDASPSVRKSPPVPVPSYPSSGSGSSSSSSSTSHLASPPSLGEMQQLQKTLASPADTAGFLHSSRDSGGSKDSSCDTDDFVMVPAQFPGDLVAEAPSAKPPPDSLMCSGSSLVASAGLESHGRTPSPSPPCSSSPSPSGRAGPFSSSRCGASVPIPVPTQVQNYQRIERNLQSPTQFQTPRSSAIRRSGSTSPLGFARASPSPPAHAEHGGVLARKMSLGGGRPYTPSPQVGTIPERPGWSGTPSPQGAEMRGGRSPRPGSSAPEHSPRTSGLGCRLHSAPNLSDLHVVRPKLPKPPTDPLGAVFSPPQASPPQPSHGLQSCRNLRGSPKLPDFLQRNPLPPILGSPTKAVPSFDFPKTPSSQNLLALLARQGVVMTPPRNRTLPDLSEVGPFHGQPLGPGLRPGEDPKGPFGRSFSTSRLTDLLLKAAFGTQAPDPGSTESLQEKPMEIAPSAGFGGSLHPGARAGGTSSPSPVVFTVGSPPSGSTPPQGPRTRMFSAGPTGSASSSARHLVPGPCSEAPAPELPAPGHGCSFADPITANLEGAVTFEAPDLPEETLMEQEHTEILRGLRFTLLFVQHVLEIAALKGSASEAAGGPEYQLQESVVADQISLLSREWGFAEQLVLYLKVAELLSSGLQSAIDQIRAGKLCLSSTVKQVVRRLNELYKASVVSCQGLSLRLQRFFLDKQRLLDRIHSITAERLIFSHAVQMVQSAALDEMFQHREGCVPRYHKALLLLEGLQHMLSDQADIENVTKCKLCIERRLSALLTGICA
# Method: as §1
# [2] = molecular target: T11, PLK3 kinase catalytic domain (Homo sapiens, UniProt Q9H4B4); assay: DiscoverX KINOMEscan; format: binding; details: read-out: % Control
# T11 construct: PLK3 kinase catalytic domain; purchased DiscoverX KINOMEscan
# T11 sequence (Q9H4B4 62-314 limits assumed): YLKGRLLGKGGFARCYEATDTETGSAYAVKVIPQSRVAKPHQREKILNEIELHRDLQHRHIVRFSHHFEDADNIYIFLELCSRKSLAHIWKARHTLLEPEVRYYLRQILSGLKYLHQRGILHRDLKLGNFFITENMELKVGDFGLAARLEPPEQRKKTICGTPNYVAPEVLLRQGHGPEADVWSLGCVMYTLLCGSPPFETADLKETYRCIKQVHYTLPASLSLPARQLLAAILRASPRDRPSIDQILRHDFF
# Method: as §1
# CAMKK2 = molecular target: T12, CAMKK2 (Homo sapiens, UniProt Q96RR4); assay: DiscoverX KINOMEscan; format: binding; details: read-out: % Control
# T12 construct: purchased DiscoverX KINOMEscan
# Method: as §1
# hERG ion channel = hERG ion channel (Homo sapiens, UniProt Q12809); assay: hERG ion channel activity
# PLK1 = molecular target: T13, PLK1 (Homo sapiens, UniProt P53350); assay: Cellular thermal shift assay (CeTSA / ITDRF-CeTSA) in HeLa cell lysates; format: binding
# T13 construct: endogenous in cells; host or cells: HeLa cell lysate
# Method: Two million HeLa cells were assessed for viability using Trypan blue and aliquoted into PCR tubes for lysate preparation and CeTSA. Aggregation temperature (Tagg) was determined for PLK1 PBD with a Biorad Tetrad gradient maker, using a final concentration of 1mM or 0.5mM for Poloppin or Poloppin-II, respectively, in 5% DMSO ([Jafari et al., 2014]). Samples were assessed using PLK1 antibodies (Invitrogen 33-1700) and GAPDH (Santa Cruz sc137179) and Li-Cor antibody (926-32252). Quantification was done with Odyssey Li-Cor technology.
# Panc 05.04 = assay: Cell viability (SRB), Panc 05.04; format: cell-based; details: Homo sapiens, Panc 05.04, 72 h
# Method: SW48 Parental, SW48 G12D, Panc-1, HPAF-II, Panc 02.03 and Panc 05.04 cell lines were seeded overnight at 5000 cells per well in a 96 well plate in recommended media (ATCC). Compounds were added the following day and viability was measured at 72h using the sulforhodamine B (SRB) colorimetric assay as follows. Cells were fixed by replacing media with 1% v/v Trichloroacetic Acid (TCA) (Sigma-Aldrich) at 4°C and incubated for 1h also at 4°C. Wells were washed thoroughly with copious amounts of deionised water before staining with Sulforhodamine B (SRB) (Sigma-Aldrich) solution (0.057% w/v in 1% v/v Acetic Acid (VWR)) for 30 min. Stain was aspirated and wells washed with several changes of 1% v/v Acetic Acid until unbound stain was removed, before air-drying. Bound stain was solubilized with 100μl / well 10mM Tris (pH 8.0) (Trizma Base (121.1) Sigma-Aldrich) with agitation for 10 min. Fluorescence intensity was recorded at Ex540nm / Em590nm using a BMG Pherastar Plus plate reader ([Vichai and Kirtikara, 2006]).
# Pancreatic organoids were extracted and cultured as detailed above ([Boj et al., 2015]). In brief, pancreatic organoids were seeded at 600 cells per well in a 96 well plate and allowed to grow for 7 days with media replenishment on the 3rd day. Full-grown organoids were then treated with compounds for 72h and viability determined using CellTitre Glo 3D assay (Promega). For viability assays with c-MET siRNA, cells were reverse transfected in a 6 cm dish using Dharmafect 1 (GE Dharmacon) per manufacturer’s instructions. On the following day, cells were trypsinised and plated onto 96 well plates or 6 well plates. The 96 well plates were treated with a dose range of compounds or DMSO, and viability was determined via SRB colorimetric assay. […]
# Cells were reverse-transfected with 50nM (SW48 parental, SW48 KRAS G12D and Panc-1) or 25nM (HeLa Flp-In T-REx parental cells) siRNA using Dharmafect (GE Dharmacon) as manufacturer’s recommendations. […] Viability was assessed after 72 hrs, with the SRB colorimetric assay. Knockdown efficiencies were determined by Western blot or RT-qPCR. […]
smiles,measurement,setting,value
CN(C)CCNC(=O)c1ccc(-c2ccc(-c3ccc(Cl)cc3)n2-c2ccccc2C(F)(F)F)cc1 [Poloppin-II],half-life,[1],1.28 h
same,hepatocyte CLint,[1],18 µL/min/1e6 cells
same,remaining binding at 5 µM,"ERN1; ERN1, Poloppin-II 5µM, hit <35%",74%
same,remaining binding at 5 µM,"NEK10; NEK10, Poloppin-II 5µM, hit <35%",94%
same,remaining binding at 5 µM,"WEE1; WEE1, Poloppin-II 5µM, hit <35%",98%
same,remaining binding at 5 µM,"NEK2; NEK2, Poloppin-II 5µM, hit <35%",94%
same,remaining binding at 5 µM,"NEK5; NEK5, Poloppin-II 5µM, hit <35%",99%
same,remaining binding at 5 µM,"TLK2; TLK2, Poloppin-II 5µM, hit <35%",94%
same,remaining binding at 5 µM,"IKBKB; IKBKB, Poloppin-II 5µM, hit <35%",100%
same,remaining binding at 5 µM,"EIF2AK4; EIF2AK4, Poloppin-II 5µM, hit <35%",97%
same,remaining binding at 5 µM,"NEK3; NEK3, Poloppin-II 5µM, hit <35%",74%
same,remaining binding at 5 µM,"ULK1; ULK1, Poloppin-II 5µM, hit <35%",84%
same,remaining binding at 5 µM,"[2]; PLK3, Poloppin-II 5µM, hit <35%",74%
same,remaining binding at 5 µM,"CAMKK2; CAMKK2, Poloppin-II 5µM, hit <35%",97%
same,activity against the hERG ion channel,hERG ion channel,inactive
O=C(O)CCc1ccc(-c2ccc(Br)cc2)n1-c1ccccc1C(F)(F)F [Poloppin],concentration at which cellular PLK1 is stabilized (ITDRF-CeTSA),PLK1; cell lysates at a constant 67°C,> 40 µM
same,thermal stability of PLK1 protein (CeTSA),"PLK1; fixed dose of 1 mM, HeLa cell lysates, compared with control",increased thermal stability
same,remaining binding at 50 µM,ERN1,76%
same,remaining binding at 50 µM,NEK10,98%
same,remaining binding at 50 µM,WEE1,99%
same,remaining binding at 50 µM,NEK2,95%
same,remaining binding at 50 µM,NEK5,83%
same,remaining binding at 50 µM,TLK2,90%
same,remaining binding at 50 µM,IKBKB,100%
same,remaining binding at 50 µM,EIF2AK4,100%
same,remaining binding at 50 µM,NEK3,72%
same,remaining binding at 50 µM,ULK1,84%
same,remaining binding at 50 µM,[2],83%
same,remaining binding at 50 µM,CAMKK2,82%
same,EC50,"Panc 05.04; read-out: EC50, % survival, Panc 05.04, All Stars control siRNA, 72 h",23.8 ± 1.08 µM
same,EC50,"Panc 05.04; read-out: EC50, % survival, Panc 05.04, siMET, 72 h",11.6 ± 1.07 µM
